The target in data set [1] is T1, Macrophage migration inhibitory factor (Homo sapiens, UniProt P14174).
T1 sequence (P14174 whole entry): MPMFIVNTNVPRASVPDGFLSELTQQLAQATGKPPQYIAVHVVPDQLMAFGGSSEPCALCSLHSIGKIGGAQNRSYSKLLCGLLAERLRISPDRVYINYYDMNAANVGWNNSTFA
Briefly: Inhibition of recombinant human MIF tautomerase activity expressed in Escherichia coli using 4-hydroxyphenyl pyruvic acid as substrate preincubated for 30 mins followed by substrate addition and measured for 175 secs.

For data set [2], the target named is T1, Macrophage migration inhibitory factor. The data set can be described thus: Inhibition of C-terminal His-tagged recombinant human MIF tautomerase activity expressed in Escherichia coli BL21 using 4-hydroxyphenyl pyruvic acid as substrate preincubated for 15 mins followed by substrate addition and measured for 10 mins in absence of EDTA by UV absorbance based Cheng-Prusoff equation analysis.

Data set [3] shares this target. Briefly: Inhibition of C-terminal His-tagged recombinant human MIF tautomerase activity expressed in Escherichia coli BL21 using 4-hydroxyphenyl pyruvic acid as substrate preincubated for 15 mins followed by substrate addition and measured for 10 mins in presence of 0.5 mM EDTA by UV absorbance analysis.
For data set [4] the target is unchanged. Briefly: Inhibition of C-terminal His-tagged recombinant human MIF tautomerase activity expressed in Escherichia coli BL21 using 4-hydroxyphenyl pyruvic acid as substrate preincubated for 15 mins followed by substrate addition and measured for 10 mins in presence of 0.5 mM EDTA by UV absorbance based Cheng-Prusoff equation analysis.
A short description of data set [5]: Solubility of compound in pH 7.4 PBS buffer by shake-flask method. The format is physicochemical.
Data set [6] addresses T1, Macrophage migration inhibitory factor. Briefly: Binding affinity to RED-Tris-NTA-labelled C-terminal His-tagged recombinant human MIF tautomerase activity expressed in Escherichia coli BL21 by microscale thermophoresis assay. On the technique in general: Microscale thermophoresis detects binding through changes in fluorescence in a small temperature gradient.
Data set [7] can be described thus: Solubility of compound at >=50 uM. The format is physicochemical.

Molecules are shown by their SMILES.

The term Ki denotes the equilibrium dissociation constant of an inhibitor or competing ligand from its target. Broadly, the IC50 is the concentration that gives 50% inhibition. Broadly, the solubility (thermodynamic) is the concentration in solution at equilibrium with solid. By Kd is commonly meant a measure of binding affinity in units of concentration.

With `Oc1ccc(-n2cc(-c3ccccn3)nn2)cc1`, the figures for the Ki in data set [1], in data set [2] and in data set [4] were 8.8 µM, 2.9 µM and 5 µM, respectively. The IC50 in data set [3] is 7.2 µM.
In the case of `Oc1ccc(-n2cc(C3CCCCC3)nn2)cc1`, the IC50 in data set [3] was found to be 26 µM. For the same compound, in data set [4], the Ki amounted to 17 µM.
The like results for `O=C(NCc1cn(-c2ccc(O)cc2)nn1)c1ccc(Br)o1` were, in that order, 38 µM and 26 µM.
The like results for `O=C(CCc1cn(-c2ccc(O)cc2)nn1)Nc1ccccc1` were, in that order, 47 µM and 32 µM.
With `O=C(NCc1cn(-c2ccc(O)c(F)c2)nn1)c1cc2ccccc2[nH]1`, the solubility (thermodynamic) in data set [5] amounted to 41.4 µM. Further, in data set [6], the Kd is 3.63 µM. In addition, in data set [3], the IC50 worked out at 4.8 µM. For the same compound, the Ki in data set [4] amounted to 3.3 µM.
In the case of `O=C(NCc1cn(-c2ccc(O)cc2)nn1)c1cc2ccccc2[nH]1`, the IC50 in data set [3] worked out at 10 µM. Also, the Ki in data set [4] came to 6.9 µM.
The like results for `C#CCCCCc1cn(-c2ccc(O)cc2)nn1` were, in that order, 9.5 µM and 6.5 µM.
Turning to `O=C(NCc1cn(-c2ccc(O)cc2)nn1)c1ccc[nH]1`, in data set [3], the IC50 was 43 µM. In addition, the Ki in data set [4] came to 30 µM.
Turning to `COC(=O)CCCc1cn(-c2ccc(O)cc2)nn1`, the IC50 in data set [3] was found to be 33 µM. Further, the Ki in data set [4] is 23 µM.
In the case of `O=C(Cc1cc2ccccc2[nH]1)NCc1cn(-c2ccc(O)cc2)nn1`, the IC50 in data set [3] was determined as 62 µM. In data set [4], the Ki worked out at 43 µM.
The compound `Oc1ccc(-n2cc(-c3ccc4ccccc4n3)nn2)cc1` came in with a solubility (thermodynamic) in data set [5] of 2.2 µg/mL.
For the compound `O=C(NCc1cn(-c2ccc(O)cc2)nn1)c1ccc(F)cc1`, in data set [3], the IC50 was found to be 53 µM. The Ki in data set [4] was determined as 36 µM.
On to `O=C(NCc1cn(-c2ccc(O)c(F)c2)nn1)c1cc2cc(Cl)ccc2[nH]1`, for which the thermodynamic solubility in data set [5] is 28 µM. Further, the solubility result in data set [7] is on record as “Insoluble”. Moreover, the Ki in data set [4] was determined as 0.96 µM.
For `O=C(NCc1cn(-c2ccc(O)cc2)nn1)c1cccs1`, the IC50 in data set [3] turned out to be 41 µM. In addition, the Ki in data set [4] turned out to be 28 µM.
The like results for `CCCCCc1cn(-c2ccc(O)cc2)nn1` were, in that order, 10 µM and 6.9 µM.
For the compound `O=C(NCc1cn(-c2ccc(O)cc2)nn1)c1ccccc1`, in data set [3], the IC50 is 33 µM. For the same compound, the Ki in data set [4] worked out at 23 µM.
As for `Cc1ccc(C(=O)NCc2cn(-c3ccc(O)cc3)nn2)s1`, in data set [3], the IC50 is 28 µM. The Ki in data set [4] worked out at 19 µM.

These data come from ChEMBL document CHEMBL4715839, “Structure-activity relationships for binding of 4-substituted triazole-phenols to macrophage migration inhibitory factor (MIF)” (Eur J Med Chem, 2020).
